Measured values taken from article PMC8533149 (Biomolecules, 2021).

test system: HIV-1 LTR-III G-quadruplex (FAM/TAMRA-labeled LTR-III); assay: FRET melting assay, LTR-III G4; format: binding; conditions: Table S1 primary screening, ligand:ODN 50:1, singlicate
Experimental: To evaluate stabilizing properties of the ligands in a complex with oligodeoxyribonucleotides (ODNs) melting with fluorescence registration was used. ODN (0.5 μM) (Table 1), labeled with 6-carboxyfluorescein (FAM) and 6-carboxytetramethylrhodamine (TAMRA) at the 5′- and 3′-end, respectively, were folded in lithium cacodylate buffer (10 mM, pH 7.4) with 100 mM KCl by heating at 95 °C for 5 min and gradually cooling to r.t. GFP chromophore analogs (5 mM solution in DMSO) were diluted with the same buffer to the final concentration of 25 μM and mixed with an equal volume of 0.5 μM ODN solution resulting in a molar ratio of 50:1 (total volume was 50 μL). For the titration experiments molar ratios of 20:1 and 2:1 were used. Samples were analyzed using DTprime qPCR system (DNA-Technology LLC, Moscow, Russia). Fluorescence was registered by detection of FAM emission at 520 nm upon excitation at 495 nm in the temperature range of 30–95 °C with 1 °C/min gradient. Tm was determined using the instrument software and ΔTm was calculated relative to ODN Tm in a buffer solution containing 0.25% (v/v) DMSO. The primary and secondary screening were carried out in singlicate and triplicate, respectively.

Compound	LTR-III ΔTm [°C]
CC1=NC(=Cc2ccccc2O)C(=O)N1C [M 1583.4]	0.2
COc1ccccc1C=C1N=C(C)N(C)C1=O [M 1583.5]	0.1
COc1ccc(/C=C2\N=C(C)N(C)C2=O)cc1OC [M 1583.6]	0
CC1=NC(=Cc2ccc(O)c(O)c2)C(=O)N1C [M 1583.7]	-1.4
CC1=N/C(=C\c2ccccc2O[Si](c2ccccc2)(c2ccccc2)C(C)(C)C)C(=O)N1C [M 1586]	-0.3
CCCCN(CCCC)c1cccc(C=C2N=C(C)N(C)C2=O)c1 [M 1600]	-0.4
CC1=NC(=Cc2ccc(O[Si](c3ccccc3)(c3ccccc3)C(C)(C)C)c(O)c2)C(=O)N1C [M 1620]	0.4
CCN(CC)c1ccc(C=C2N=C(C)N(C)C2=O)cc1 [M 1661]	0.4
Br.CC1=NC(=Cc2ccc(N(C)C)cc2)C(=O)N1CCN [M 1668]	0.2
CCN(CC)c1ccc(C=C2N=C(C(C)=O)N(C)C2=O)cc1 [M 1706]	-0.4
COc1ccc(C=C2N=C(C)N(C)C2=O)cc1 [M 1814]	-0.3
CCOC(=O)CN1C(=O)C(=Cc2ccc(O)cc2)N=C1C [M 1831.1]	-0.2
CCCC1=NC(=C(N)c2ccccc2)C(=O)N1 [M 1862]	-1.1
CCCC1=NC(=C(NB(F)F)c2ccccc2)C(=O)N1 [M 1878.1]	-1.5
CCN(CC)c1ccc(/C=C2\N=C(C)N(C)C2=O)c(O)c1 [M 1933]	-0.3
COc1ccc(C=C2N=C(Nc3ccccc3)N(C)C2=O)cc1 [M 1944b]	-0.3
CCCC1=NC(=CN(C)C)C(=O)N1C [M 1945.1]	-0.6
CCN(CC)c1ccc(C=C2N=C(C=Cc3ccc(OC)cc3)N(C)C2=O)c(B(F)F)c1 [M 1971a]	-0.3
CCN(CC)c1ccc(C=C2N=C(C=CC=Cc3ccc(OC)cc3)N(C)C2=O)c(B(F)F)c1 [M 1971c]	0.6
CC1=NC(=Cc2c[nH]c3cccc(C)c23)C(=O)N1C [M 1974]	0
CC(=O)C1=N/C(=C\c2c[nH]c3ccccc23)C(=O)N1C [M 1975]	-0.6
CCC(=O)n1cc(C=C2N=C(CC)OC2=O)c2c(C)cccc21 [M 1977]	0
CCC1=NC(=Cc2c[nH]c3cccc(C)c23)C(=O)N1C [M 1978]	-0.1

Compound	LTR-III ΔTm [°C]
CCC(=O)NC(=Cc1c[nH]c2cccc(C)c12)C(=O)NC [M 1979]	-0.1
CC(=O)C1=NC(=Cc2c[nH]c3cccc(C)c23)C(=O)N1C [M 1981]	1.7
CC1=NC(=Cc2ccncc2)C(=O)N1C [M 1998]	-0.4
CC1=NC(=Cc2ccc(N(C)C)cc2)C(=O)N1CCNC(=O)OC(C)(C)C [M 2022a]	-0.2
COc1ccc(C=C2N=C(C)N(CCNC(=O)OC(C)(C)C)C2=O)cc1 [M 2022b]	0
CC1=NC(=Cc2ccccc2)C(=O)N1CCNC(=O)OC(C)(C)C [M 2022d]	-0.3
COc1ccc(C=C2N=C(C)N(CCNC(=O)OC(C)(C)C)C2=O)cc1OC [M 2022e]	0
CCN(CC)c1ccc(C=C2N=C(C)N(CCNC(=O)OC(C)(C)C)C2=O)cc1 [M 2026c]	0.2
COc1cccc(C=C2N=C(C)N(CCNC(=O)OC(C)(C)C)C2=O)c1 [M 2026f]	-0.4
COc1ccc(C=C2C(=O)N(C)C(C)=[N+]2C)cc1.O=S(=O)([O-])C(F)(F)F [M 2060]	-0.2
CCN(CC)C(=S)Oc1ccc(C=C2N=C(c3ccccc3)N(C)C2=O)cc1 [M 2069]	-0.4
CCN(CC)C(=O)Sc1ccc(C=C2N=C(c3ccccc3)N(C)C2=O)cc1 [M 2075]	0.3
CCN(CC)C(=S)Oc1ccc(C=C2N=C(C)N(C)C2=O)cc1 [M 2081]	0.1
CCCC1=N/C(=C\c2ccncc2)C(=O)N1C [M 2237]	-0.3
CC1=NC(=Cc2ccncc2)C(=O)N1CCNC(=O)OC(C)(C)C [M 2250.2]	-0.1
CC1=NC(=Cc2cc(C(C)(C)C)c(O)c(C(C)(C)C)c2)C(=O)N1C [M 2273.1]	0.2
CCOC(=O)CN1C(=O)C(=Cc2ccc(O)c(F)c2)N=C1C [M 2286.1]	-0.3
CC1=NC(=Cc2cc(F)c(O)c(F)c2)C(=O)N1C [M 2296]	-0.4
COc1ccc(O)c(C=C2N=C(C)N(C)C2=O)c1 [M 2360]	-0.3
CN1C(=O)C(=Cc2ccc(N(C)C)cc2)N=C1C=Cc1cc(Br)c(O)c(Br)c1 [M 2368c]	0
CCN(CC)c1ccc(C=C2N=C(C=Cc3cc(Br)c(O)c(Br)c3)N(C)C2=O)cc1 [M 2368d]	0.1
CC(=O)Oc1ccc(C=C2N=C(C)N(C)C2=O)cc1 [M 2370]	0
COc1ccc(/C=C2N=C(/C=C/N3CCOCC3)N(C)C\2=O)cc1 [M 2371c]	-0.1

Compound	LTR-III ΔTm [°C]
CN1C(=O)C(=Cc2ccc(O)cc2)N=C1C(=O)c1ccccc1 [M 2372a]	0.1
CCC(=O)C1=NC(=Cc2ccc(O)cc2)C(=O)N1C [M 2372в]	-0.2
CC1=NC(=Cc2cccc(C(F)(F)F)c2)C(=O)N1C [M 2375]	-0.2
COc1ccc(C=C2N=C(C)N(C)C2=O)c(OC)c1 [M 2379]	0.1
CN1C(=O)C(=Cc2ccc(C#N)cc2)N=C1Nc1ccccc1 [M 2385a]	-0.1
CN1C(=O)C(=Cc2ccccc2)N=C1Nc1ccccc1 [M 2385b1]	-0.1
CC1=NC(=Cc2ccc(O)c([N+](=O)[O-])c2)C(=O)N1C [M 2482]	-1.2
CCOc1cc(C=C2N=C(C)N(C)C2=O)ccc1O [M 2486]	0
CC1=NC(=Cc2ccc(O)c(C#N)c2)C(=O)N1C [M 2489.2]	-0.5
COc1cc(C=C2N=C(C)N(C)C2=O)ccc1O [M 2491]	-0.2
O=C1NC(=S)NC1=Cc1ccc(O)cc1 [M 2497]	0
COc1cc(/C=C2N=C(/C=C/c3ccccc3)N(C)C\2=O)ccc1O [M 2499a]	0.1
CN1C(=O)C(=Cc2ccc(O)c(O)c2)N=C1C=Cc1ccccc1 [M 2499b]	0.3
COc1cc(O)ccc1C=C1N=C(C(F)(F)F)N(C)C1=O [M 2738c]	0.4
COc1cc(C=C2N=C(C(F)(F)F)N(C)C2=O)c(OC)cc1O [M 2738d]	1.4
COc1cc(O)ccc1/C=C/C1=[N+](C)c2ccccc2C1(C)C.[O-][Cl+3]([O-])([O-])[O-] [M 2761a]	0.5
COc1cc(O)ccc1C=C1N=C(C=Cc2ccccn2)N(C)C1=O [M 2766]	1.1
COc1cc(O)ccc1/C=C1N=C(/C=C/c2ccccc2)N(C)C\1=O [MID 145]	0.9
COc1cc(O)ccc1C=C1N=C(C=Cc2ccc(N(C)C)cc2)N(C)C1=O [MID 147]	0.4
COc1cc(O)ccc1C=C1N=C(C=C(C#N)c2ccccc2)N(C)C1=O [MID 151]	0.2
COc1cc(O)ccc1/C=C1N=C(/C=C(\C#N)c2cccs2)N(C)C\1=O [MID 153]	2
CN1C(=O)C(=Cc2ccc(O)cc2N(C)C)N=C1C=Cc1ccncc1 [MID 213]	0.9
